Reference: paper PMC11047580, “Design and Synthesis of Novel Amino and Acetamidoaurones with Antimicrobial Activities” (Antibiotics, 2024)
Converted amounts (≈) assume the structure as drawn.

Columns and labels:
[1] = tested on: Mycobacterium abscessus R(CIP 104536^T); assay: MIC assay (REMA); format: cell-based; conditions: REMA microdilution, n = 2–3
M. smegmatis ATCC700084 = assay: MIC assay (REMA); format: cell-based, Mycobacterium smegmatis; conditions: Mycolicibacterium smegmatis, ATCC700084, REMA microdilution, n = 2–3
C. albicans DSM10697 = assay: MIC assay; format: cell-based, Candida albicans; conditions: Candida albicans, DSM10697; two-fold serial dilutions in liquid media; n = 2–3
[2] = tested on: Fusarium oxysporum (DSM62316); assay: MIC assay; format: cell-based; conditions: two-fold serial dilutions in liquid media, n = 2–3
P. aeruginosa ATCC9027 = assay: MIC assay; format: cell-based, Pseudomonas aeruginosa; conditions: two-fold serial dilutions in liquid media, n = 2–3
[3] = Cytotoxic assay, summary over the six human cell types; conditions: human, 48 h exposure
[4] = tested on: Vibrio alginolyticus (DSM2171); assay: MIC assay; format: cell-based; conditions: two-fold serial dilutions in liquid media, n = 2–3
[5] = tested on: Brucella melitensis (NR-256); assay: microbe, parasite or virus in culture; format: cell-based; conditions: read-out: MIC Brucella melitensis (NR-256)
[6] = tested on: Enterobacter cloacae (DSM30054); assay: MIC assay; format: cell-based; conditions: two-fold serial dilutions in liquid media, n = 2–3
MRSA (ATCCBAA-1717) = assay: MIC assay; format: cell-based, methicillin-resistant S. aureus; conditions: Staphylococcus aureus, read-out: MIC MRSA (ATCCBAA-1717)
[7] = tested on: Aspergillus fumigatus (DSM819); assay: MIC assay; format: cell-based; conditions: two-fold serial dilutions in liquid media, n = 2–3
[8] = tested on: Shigella flexneri (ATCC12022); assay: MIC assay; format: cell-based; conditions: two-fold serial dilutions in liquid media, n = 2–3
[9] = Cytotoxic assay (resazurin); conditions: human, BEAS-2B normal lung epithelial cells
[10] = tested on: Bacillus anthracis (CNR-charbon_04022); assay: microbe, parasite or virus in culture; format: cell-based; conditions: read-out: MIC Bacillus anthracis (CNR-charbon_04022)
[11] = Cytotoxic assay (resazurin); conditions: human, HaCaT normal epidermal keratinocytes
S. aureus ATCC6538P = assay: MIC assay; format: cell-based, Staphylococcus aureus; conditions: Staphylococcus aureus, ATCC6538P; two-fold serial dilutions in liquid media; n = 2–3
[12] = tested on: Streptococcus pyogenes (DSM20565); assay: MIC assay; format: cell-based; conditions: two-fold serial dilutions in liquid media, n = 2–3
[13] = Cytotoxic assay (resazurin); conditions: human, IMR-90 normal lung fibroblasts
Bacillus cereus (DSM31) = assay: MIC assay; format: cell-based; conditions: two-fold serial dilutions in liquid media, n = 2–3
[14] = tested on: Helicobacter pylori (ATCC43504); assay: MIC assay; format: cell-based; conditions: two-fold serial dilutions in liquid media, n = 2–3
E. coli ATCC8739 = assay: MIC assay; format: cell-based, Escherichia coli; conditions: Escherichia coli, ATCC8739; two-fold serial dilutions in liquid media; n = 2–3
[15] = tested on: Clostridium difficile (DSM1296); assay: MIC assay; format: cell-based; conditions: Clostridioides difficile, two-fold serial dilutions in liquid media, n = 2–3
[16] = tested on: Clostridium perfringens (ATCC13124); assay: microbe, parasite or virus in culture; format: cell-based; conditions: ATCC13124, read-out: MIC Clostridium perfringens (ATCC13124)
[17] = tested on: Listeria monocytogenes (DSM20600); assay: MIC assay; format: cell-based; conditions: two-fold serial dilutions in liquid media, n = 2–3
[18] = Cytotoxic assay (resazurin); conditions: human, HepG2 liver cells
[19] = tested on: Enterococcus faecium (DSM20477); assay: MIC assay; format: cell-based; conditions: two-fold serial dilutions in liquid media, n = 2–3
[20] = Cytotoxic assay (resazurin); conditions: human, Caco-2
[21] = tested on: Mycobacterium abscessus S (CIP 104536^T); assay: MIC assay (REMA); format: cell-based; conditions: REMA microdilution, n = 2–3
[22] = tested on: Francisella tularensis (NR-643); assay: microbe, parasite or virus in culture; format: cell-based; conditions: read-out: MIC Francisella tularensis (NR-643)
[23] = tested on: Klebsiella pneumonia (DSM26371); assay: MIC assay; format: cell-based; conditions: two-fold serial dilutions in liquid media, n = 2–3
[24] = tested on: Candida tropicalis (DSM9419); assay: MIC assay; format: cell-based; conditions: two-fold serial dilutions in liquid media, n = 2–3
[25] = tested on: Clostridium botulinum (DSM1985); assay: microbe, parasite or virus in culture; format: cell-based; conditions: DSM1985, read-out: MIC Clostridium botulinum (DSM1985)
[26] = tested on: Salmonella enterica (CIP80.39); assay: MIC assay; format: cell-based; conditions: two-fold serial dilutions in liquid media, n = 2–3
[27] = tested on: Cryptococcus neoformans (DSM11959); assay: MIC assay; format: cell-based; conditions: two-fold serial dilutions in liquid media, n = 2–3
B. subtilis ATCC6633 = assay: MIC assay; format: cell-based, Bacillus subtilis; conditions: Bacillus subtilis, ATCC6633; two-fold serial dilutions in liquid media; n = 2–3
[28] = Cytotoxic assay (resazurin); conditions: human, A498 kidney epithelial cells
[29] = tested on: Candida glabrata (DSM11226); assay: MIC assay; format: cell-based; conditions: Nakaseomyces glabratus, two-fold serial dilutions in liquid media, n = 2–3
[30] = tested on: Mycobacterium tuberculosis H37Rv (mc^26230); assay: MIC assay (REMA); format: cell-based; conditions: REMA microdilution, n = 2–3
Yersinia pestis (NR-641) = assay: microbe, parasite or virus in culture; format: cell-based; conditions: read-out: MIC Yersinia pestis (NR-641)
[31] = tested on: Acinetobacter baumannii (DSM30007); assay: MIC assay; format: cell-based; conditions: two-fold serial dilutions in liquid media, n = 2–3
[32] = tested on: Enterococcus faecalis (DSM2570); assay: MIC assay; format: cell-based; conditions: two-fold serial dilutions in liquid media, n = 2–3
[33] = tested on: Propionibacterium acnes (ATCC6919); assay: MIC assay; format: cell-based; conditions: Cutibacterium acnes, two-fold serial dilutions in liquid media, n = 2–3
Candida auris (DSM21092) = assay: MIC assay; format: cell-based; conditions: Candidozyma auris, two-fold serial dilutions in liquid media, n = 2–3

CC(=O)Nc1ccc2c(c1)C(=O)/C(=C/c1ccc(OC(C)C)cc1)O2 [Compound 20, (Z)-N-(2-(4-isopropoxybenzylidene)-3-oxo-2,3-dihydrobenzofuran-5-yl)acetamide]
MIC ([1]; Mycobacteroides abscessus, CIP104536, R morphotype): > 100 µM | MIC Mycobacterium abscessus R(CIP 104536^T) ([1]; R morphotype): inactive | MIC (M. smegmatis ATCC700084): 50 µM (≈ 16.9 µg/mL) | MIC (C. albicans DSM10697): 50 µM (≈ 16.9 µg/mL) | MIC [2]: 25 µM (≈ 8.43 µg/mL) | MIC (P. aeruginosa ATCC9027; Pseudomonas aeruginosa, ATCC9027): > 100 µM | MIC (P. aeruginosa ATCC9027): >100 µM | CC50 at 48 h ([3]; Highest CC50, highest of the six human cell types): > 500 µM | CC50 at 48 h ([3]; Lowest CC50, lowest of the six human cell types): 126 µM | MIC [4]: 50 µM (≈ 16.9 µg/mL) | MIC [5]: 12.5 µM (≈ 4.22 µg/mL) | MIC ([6]; Enterobacter cloacae, DSM30054): > 100 µM | MIC [6]: >100 µM | MIC (MRSA (ATCCBAA-1717)): 25 µM (≈ 8.43 µg/mL) | MIC ([7]; Aspergillus fumigatus, DSM819): > 100 µM | MIC Aspergillus fumigatus (DSM819) [7]: inactive | MIC [8]: 50 µM (≈ 16.9 µg/mL) | CC50 at 48 h [9]: 126 µM | IC50 at 48 h [9]: 126 µM | MIC [10]: 6.25 µM (≈ 2.11 µg/mL) | CC50 at 48 h [11]: 323 µM | IC50 at 48 h [11]: 323 µM | MIC (S. aureus ATCC6538P): 12.5 µM (≈ 4.22 µg/mL) | MIC [12]: 50 µM (≈ 16.9 µg/mL) | CC50 at 48 h [13]: 438 µM | IC50 at 48 h [13]: 438 µM | MIC (Bacillus cereus (DSM31)): 25 µM (≈ 8.43 µg/mL) | MIC [14]: 12.5 µM (≈ 4.22 µg/mL) | MIC (E. coli ATCC8739): 25 µM (≈ 8.43 µg/mL) | MIC [15]: 3.12 µM (≈ 1.05 µg/mL) | MIC [16]: > 100 µM | MIC [17]: 6.25 µM (≈ 2.11 µg/mL) | CC50 at 48 h [18]: > 500 µM | IC50 at 48 h [18]: > 500 µM | MIC [19]: 25 µM (≈ 8.43 µg/mL) | CC50 at 48 h [20]: 186 µM | IC50 at 48 h [20]: 186 µM | MIC ([21]; Mycobacteroides abscessus, CIP104536, S morphotype): > 100 µM | MIC Mycobacterium abscessus S (CIP 104536^T) ([21]; S morphotype): inactive | MIC [22]: 12.5 µM (≈ 4.22 µg/mL) | MIC ([23]; Klebsiella pneumoniae, DSM26371): > 100 µM | MIC [23]: >100 µM | MIC [24]: 100 µM (≈ 33.7 µg/mL) | MIC [25]: 3.12 µM (≈ 1.05 µg/mL) | MIC [26]: 50 µM (≈ 16.9 µg/mL) | MIC [27]: 25 µM (≈ 8.43 µg/mL) | MIC (B. subtilis ATCC6633): 25 µM (≈ 8.43 µg/mL) | CC50 at 48 h [28]: 453 µM | IC50 at 48 h [28]: 453 µM | MIC [29]: 50 µM (≈ 16.9 µg/mL) | MIC ([30]; Mycobacterium tuberculosis, H37RV): > 100 µM | MIC Mycobacterium tuberculosis H37Rv (mc^26230) [30]: inactive | MIC (Yersinia pestis (NR-641)): 12.5 µM (≈ 4.22 µg/mL) | MIC [31]: 25 µM (≈ 8.43 µg/mL) | MIC [32]: 100 µM (≈ 33.7 µg/mL) | MIC [33]: > 100 µM | MIC (Candida auris (DSM21092)): 12.5 µM (≈ 4.22 µg/mL)
